We go through two compounds from patent US5411983A, “Certain hyrdoxy-phosphinyl-oxy-phenylmethyl-imidazolium hydroxide inner salts as PAF antagonists” (American Cyanamid Company, priority 1993, dated 1995).

Molecules are shown by their SMILES. Where a name gives a salt, the structure may show the parent alone. Some results are limits rather than exact numbers.

Test [1] concerns PAF induced vascular permeability change in mouse skin. Nature of the test: Inhibition of PAF induced vascular permeability change in mouse skin. It is filed as in vivo, mouse (Hilltop ICR). To be noted: ip, 0.5 h, test compound i.p., PAF i.d., read-out: Inhibition of Vascular Permeability Lesion (ED50 mg/kg). On the procedure:
Inhibition of PAF Induced Vascular Permeability Change in Mouse Skin
The rationale for this test is similar to the coinjection test in guinea pigs; however, the test compound was given intraperitoneally rather than coinjected.
Test solutions were prepared as follows: An 80 μg portion of PAF was dissolved in 40 ml of saline to yield a concentration of 2000 ng/ml. A 10 mg portion of histamine diphosphate was dissolved in 100 ml of saline to yield a concentration 100 μg/ml. Test compounds were dissolved in saline and given intraperitoneally (20 mg/kg) 1/2 hour before intradermal challenge with PAF or histamine.
The animals used were Hilltop ICR mice, shaved on their flanks one day before use. The mice were randomly assigned to treated and control groups and were given test compound or saline 1/2 hour before challenge. Each mouse was injected via a tail vein with 0.25 ml of 0.05% Evans' blue dye immediately before the PAF or histamine intradermal injections were made (0.05 ml each), one per side.
Thirty minutes later the animals were killed and the lesions areas measured as described above. Lesion areas in treated animals were expressed as a percent of the control lesions and an ED50 (mg/kg) was calculated from an arcsine area vs. log dose transform.

In test [2] the target is T1, PAF receptor (Oryctolagus cuniculus, UniProt G1TEI7). Nature of the test: Inhibition of PAF induced platelet aggregation in washed rabbit platelets. The class given is cell-based. To be noted: for Ki: calculated from IC50, [PAF] and EC50; for IC50: challenge concentration of PAF 5E9M [sic]. More on the design: In some experiments, washed platelets were used instead of PRP; endogenous in cells; host or cells: washed rabbit platelets. The method, then: (§1) Platelet activating factor (PAF) compounds were evaluated as PAF receptor antagonists in vitro by measuring inhibition of PAF induced platelet aggregation. Platelet aggregation was measured by a modification of the method of A. Wissner, et. al., J. Med. Chem., 27, 1174, 1984.
(§2) Approximately 120-240 ml of blood were collected by cardiac puncture from unanesthetized male New Zealand White rabbits (Whaley's Summit View Farms, Belvedere, N.J.) with the use of 3.2% sodium citrate anticoagulant (1 part of citrate/10 parts of blood). All syringes and pipets were plastic. The blood was gently mixed and immediately centrifuged at 800 rpm for 10 minutes at room temperature to recover the platelet rich plasma (PRP). Platelet poor plasma (PPP) was prepared by centrifuging PRP at 2800 rpm for 10 minutes at room temperature.
(§3) Dilutions (1:3000) Of PRP in Isoton diluent were made and platelet counts were determined on a Coulter Thrombocounter which was standardized with platelet reference standards (Interscience Platelet Control, Portland, Oreg.). PRP platelet counts were adjusted to 500,000 platelets/μl by the addition of PPP.
(§4) L-PAF was obtained from Calbiochem. A stock solution of 1-2 E-3M was prepared in 10% ethanol in water and serial working dilutions were made using phosphate buffered saline (PBS). 1-2 E-3M stock solutions of test compounds were prepared in 100% methanol and serially diluted in PBS. All solutions were made up in plastic tubes, stored on ice and protected from heat and light. Solutions were prepared fresh or frozen at -20° C. and used within 48 hours.
(§5) Incubation mixtures consisted of 400 μl PRP, 50 μl of PBS diluent or test compound and 50 μl of PAF agonist. More specifically, 400 μl of PRP was stabilized in a cuvette for 1-2 minutes at 37° C. in the aggregometer to achieve a stable baseline, then 50 μl of PBS or test compound, was added and incubated for 5 minutes before addition of the challenge concentration of PAF ([…], as determined from the dose response curve for PAF for that experiment). Aggregation was monitored for 5 minutes. Samples containing test compound or diluent were run simultaneously for comparison. Test compounds were initially evaluated at a screening concentration of 1E-5M. Those producing ≥ 50% inhibition of the magnitude of aggregation were then reevaluated in a dose response fashion (final concentrations 1E-7M to 5E-5M) and IC50 values were determined. Ki values were also calculated in some cases from [formula] where Ki =inhibitory constant
(§6) IC50 =molar concentration of test compound which gives 50% inhibition
(§7) [PAF]=molar concentration of PAF used as challenges
(§8) EC50 =molar concentration of PAF which gives 50% of maximal aggregation.
(§9) The recording equipment consisted of single or dual channel Chronolog aggregometers connected to dual channel 10 MV full scale deflection Omniscribe chart recorders (Houston Instruments). […] The bead suspension was used to set the 0% light transmission mark and clear water was used to set the 100% light transmission mark. These limits defined a full scale deflection. The aggregation traces were analyzed by a digitizing method (C. Kohler and B. Zoltan, J. Pharm. Methods, 12, 113, 1984) with x, y coordinate data stored in a computer file. A suitable program computed parameters of interest such as the magnitude of aggregation.
In some experiments, washed platelets were used instead of PRP. Washed platelet suspensions were prepared as follows. PRP was centrifuged at 2800 rpm for 10 minutes to obtain PPP and a platelet pellet. The pellet was gently suspended and washed in calcium free, albumin free Tyrode's buffer, pH 6.3. The suspension was recentrifuged and the washed pellet was resuspended in normal Tyrodes', buffer (with calcium, but albumin free), pH 7.4. Platelet counts were adjusted to 500,00 platelets/μl.

The target in test [3] is T1, PAF receptor. Nature of the test: Inhibition of PAF induced platelet aggregation in rabbit platelet rich plasma (PRP). It is filed as cell-based, rabbit (male New Zealand White). On the set-up: immediately centrifuged at 800 rpm for 10 minutes at room temperature to recover the platelet rich plasma (PRP); endogenous in cells; host or cells: rabbit platelets in platelet rich plasma (male New Zealand White rabbits). As to conditions: for IC50: IC50 (M) PRP, inhibition of PAF-induced platelet aggregation, rabbit platelet rich plasma. On the procedure: as §1, §2, §3, §4, §5, §6, §7, §8, §9

Test [4] relates to PAF induced vascular permeability change in guinea pig skin.
From the text: Platelet Activating Factor (PAF) given intradermally, increases capillary permeability, and plasma proteins (e.g albumin) leak from the vascular space into the interstitial fluids of the skin. If the albumin has been previously stained with Evans' blue dye, the lesion area can be visualized as a blue spot in the .skin. A specific PAF antagonist inhibits the development of increased capillary permeability caused by PAF and reduces the leakage of proteins into the skin. Test compounds were evaluated for non-specific effects by monitoring their ability to inhibit or reduce a histamine induced increase in capillary permeability.
Test Solutions were prepared as follows: Evans' Blue Dye (Sigma E2129) was dissolved in saline to yield a 0.1% w/v solution. A 2 mg/ml stock chloroform solution of PAF (1-phosphotidyl, acetyl-O-alkyl; Sigma P9525) was diluted in saline to give final concentrations of 500 and 250 ng/ml. Saline dilutions were made fresh for each test. Histamine diphosphate solutions (Sigma H7375) were prepared by dissolving 10 mg in 100 ml of saline and diluting to 20 μg/ml with saline. Test compounds were dissolved in ethanol at 10 mg/ml and stored at -70° C. Injection mixtures were made by placing 10 μl of test compound solution into 1.0 ml of either the PAF solutions or the histamine solution.
The animals used were Hartley strain guinea pigs weighing 250-350 g, maintained with food and water ad libitum. The animals were shaved on their back and hind feet one day before use.
Each guinea pig was given an intravenous injection of 2 ml of Evans' blue dye solution into a foot vein. Immediately after, a series of six intradermal injections of 0.1 ml each were given, three on each side of the animal. They were: PAF 50 ng (0.1 ml of a 500 ng/ml solution); PAF 25 ng; and histamine diphosphate 2 μg. The left side injections contain 10 μg of test compound while the right side contain an equivalent amount of the ethanol vehicle to serve as a control.
Thirty minutes later the animals were killed by cervical dislocation and the skin reflected from the back. The lesion areas were approximated as the product of the largest diameter and normal diameter both in mm.
A further test has as its system PAF induced lethality. Nature of the test: PAF induced lethality in the mouse. The class given is in vivo, mouse (ICR). As to conditions: ip, 1 h, mice, test compound i.p. 1/2 hour before PAF i.v., dose that protects 1/2 the animals, read-out: PAF induced Lethality PD50 (mg/kg I.P., 1/2 hour). The method, then:
PAF Induced Lethality in the Mouse
Test compounds were evaluated for their ability to prevent death induced by an intravenous injection of a lethal dose of PAF.
ICR mice were given test compounds intraperitoneally as described under Inhibition of PAF Induced Vascular Permeability Change in Mouse Skin, 1/2 hour before an intravenous dose of 100 μg/kg PAF in saline. One hour later the number of dead mice were recorded. Protection was expressed as percent survivors in treated group/percent survivors in control group.

T1 sequence (G1TEI7 1-342): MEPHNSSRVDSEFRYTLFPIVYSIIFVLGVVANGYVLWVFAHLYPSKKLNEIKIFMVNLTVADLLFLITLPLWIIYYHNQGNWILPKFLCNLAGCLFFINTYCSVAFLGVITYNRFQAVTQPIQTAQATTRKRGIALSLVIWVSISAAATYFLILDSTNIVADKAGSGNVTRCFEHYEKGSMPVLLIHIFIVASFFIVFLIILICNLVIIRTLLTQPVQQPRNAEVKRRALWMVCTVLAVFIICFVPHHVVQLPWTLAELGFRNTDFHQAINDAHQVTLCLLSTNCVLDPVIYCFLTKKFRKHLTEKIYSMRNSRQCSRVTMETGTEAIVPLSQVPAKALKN

The Ki is a dissociation constant, usually derived from enzyme kinetics or from competition with a known ligand. By IC50 is commonly meant the concentration at which inhibition is half-maximal. High values mean weaker potency, low ones greater potency. On to `CCCCCCCCCCCCCCCCCCNC(=O)OCC(COP(=O)([O-])Oc1ccccc1C[n+]1ccsc1)OC` (stereo not drawn) [3-[[2-[(1-Hydroxy-4-methoxy-7-oxo-2,6-dioxa-8-aza-1-phosphahexacosyl)oxy]phenyl]methyl]thiazolium, hydroxide, inner salt, P-oxide], for which the figures for the ED50 (in test [1]; in the test with PAF induced lethality) were 5 mg/kg and less than 2.5 mg/kg, respectively. The Ki on PAF receptor [2] was 7.2 nM; on PAF receptor [3], 310 nM. Further, the IC50 at PAF receptor [2] was found to be 52 nM; on PAF receptor [3] (PAF challenge 1E-6M), 2.5e-05 M; at PAF receptor [3] (PAF challenge 1E-7M) it was 1.4e-06 M; against PAF receptor [3] (PAF challenge 5E-8M), 5.6e-07 M. For the same compound, the “Inhibition of Vascular Permeability Lesion (% of Control)” value in test [4] is 25 % of Control.

For `CCCCCCCCCCCCCCCCOCC(COP(=O)([O-])Oc1cccc(C[n+]2csc(C)c2)c1)OC` (stereo not drawn) [3-[[3-[[[3-(Hexadecyloxy)-2-methoxypropoxy]hydroxyphosphinyl]oxy]phenyl]methyl]-5-methylthiazolium, hydroxide, inner salt], the ED50 in test [1] was 4.8 mg/kg; with PAF induced lethality, less than 1.25 mg/kg. Further, the Ki is 15 nM on PAF receptor [2] and 210 nM at PAF receptor [3]. Further, the IC50 was determined as 32 nM against PAF receptor [2], 1.2e-05 M against PAF receptor [3] (PAF challenge 1E-6M), 7.1e-07 M against PAF receptor [3] (PAF challenge 1E-7M) and 8.2e-07 M against PAF receptor [3] (PAF challenge 5E-8M). Further, in test [4], the “Inhibition of Vascular Permeability Lesion (% of Control)” value is recorded as 24 % of Control.
